Test results reported in patent publication US12495798B2, “Nicotinamide compound and herbicidal composition comprising compound” (KOREA RESEARCH INSTITUTE OF CHEMICAL TECHNOLOGY, priority 2019, dated 2025).

Key:
Type in all cases: in vivo
[1] = test system: sorghum; test: Herbicidal activity test against upland field weeds (foliar treatment test); design: key to Foliar treatment herbicidal activity, Sorghum: 0 (no control); 100 (complete control); conditions: scale 0-100; for Foliar treatment herbicidal activity, Sorghum: 50 g ai/ha; for plant injury at 75 g/ha: Sorghum, 75 g ai/ha
Procedure, shortened: (§1)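 Visual 0–100 control ratings relative to untreated plants, taken 14 (or 21) days after spraying foliage at 50 or 75 g a.i./ha. Spray solution: 50% acetone with 0.1% Tween-20; plants kept in greenhouse at 30±5 °C, 14 h light/10 h dark.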

[2] = test system: black nightshade; test: as above; design: key to Foliar treatment herbicidal activity, black nightshade: 0 (no control); 100 (complete control); conditions: scale 0-100
Procedure, shortened: as §1

[3] = test system: indian jointvetch; test: Herbicidal activity test against upland field weeds (soil treatment test); design: key to Soil treatment herbicidal activity, Indian jointvetch: 0 (no control); 100 (complete control); conditions: scale 0 (no control) to 100 (complete control)
Procedure, shortened: (§2)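 Weed control scored visually on a 0 (none) to 100 (complete) scale versus untreated pots at 14 or 21 days in greenhouse (30±5 °C, 14 h light). Test compounds, 50 or 75 g a.i./ha in 50% acetone/0.1% Tween-20, hand-sprayed onto soil one day post-sowing.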

[4] = test system: quack grass; test: Herbicidal activity test against upland field weeds (foliar treatment test); design: key to Foliar treatment herbicidal activity, quack grass: 0 (no control); 100 (complete control); conditions: scale 0-100
Procedure, shortened: as §1

[5] = test system: bindweed; test: Herbicidal activity test against upland field weeds (soil treatment test); conditions: scale 0 (no control) to 100 (complete control); for pest or weed control at 50 g/ha: 50 g ai/ha; for pest or weed control at 75 g/ha: 75 g ai/ha
Procedure, shortened: as §2

[6] = test system: velvetleaf; test: Herbicidal activity test against upland field weeds (foliar treatment test); design: key to Foliar treatment herbicidal activity, velvet leaf: 0 (no control); 100 (complete control); conditions: for pest or weed control at 50 g/ha: 50 g ai/ha
Procedure, shortened: as §1

[7] = test system: crabgrass; test: Herbicidal activity test against upland field weeds (soil treatment test); design: key to Soil treatment herbicidal activity, Crabgrass: 0 (no control); 100 (complete control); conditions: 50 g ai/ha, scale 0 (no control) to 100 (complete control)
Procedure, shortened: as §2

[8] = test system: quack grass; test: as above; design: key to Soil treatment herbicidal activity, quack grass: 0 (no control); 100 (complete control); conditions: scale 0 (no control) to 100 (complete control)
Procedure, shortened: as §2

[9] = test system: fall panicum; test: Herbicidal activity test against upland field weeds (foliar treatment test); design: key to Foliar treatment herbicidal activity, Fall panicum: 0 (no control); 100 (complete control); conditions: scale 0-100; for pest or weed control at 75 g/ha: 75 g ai/ha
Procedure, shortened: as §1

[10] = test system: cocklebur; test: as above; design: key to Foliar treatment herbicidal activity, Cocklebur: 0 (no control); 100 (complete control); conditions: scale 0-100; for pest or weed control at 75 g/ha: 75 g ai/ha
Procedure, shortened: as §1

[11] = test system: bindweed; test: as above; conditions: scale 0-100; for pest or weed control at 50 g/ha: 50 g ai/ha; for pest or weed control at 75 g/ha: 75 g ai/ha
Procedure, shortened: as §1

[12] = test system: indian jointvetch; test: as above; design: key to Foliar treatment herbicidal activity, Indian jointvetch: 0 (no control); 100 (complete control); conditions: scale 0-100; for Foliar treatment herbicidal activity, Indian jointvetch: 50 g ai/ha; for pest or weed control at 75 g/ha: 75 g ai/ha
Procedure, shortened: as §1

[13] = test system: barnyard grass; test: Herbicidal activity test against upland field weeds (soil treatment test); design: key to Soil treatment herbicidal activity, barnyard grass: 0 (no control); 100 (complete control); conditions: scale 0 (no control) to 100 (complete control)
Procedure, shortened: as §2

[14] = test system: crabgrass; test: Herbicidal activity test against upland field weeds (foliar treatment test); design: key to Foliar treatment herbicidal activity, Crabgrass: 0 (no control); 100 (complete control); conditions: scale 0-100; for pest or weed control at 75 g/ha: 75 g ai/ha
Procedure, shortened: as §1

[15] = test system: sorghum; test: Herbicidal activity test against upland field weeds (soil treatment test); design: key to Soil treatment herbicidal activity, Sorghum: 0 (no control); 100 (complete control); conditions: scale 0 (no control) to 100 (complete control); for Soil treatment herbicidal activity, Sorghum: 50 g ai/ha; for plant injury at 75 g/ha: Sorghum, 75 g ai/ha
Procedure, shortened: as §2

[16] = test system: black nightshade; test: as above; design: key to Soil treatment herbicidal activity, black nightshade: 0 (no control); 100 (complete control); conditions: scale 0 (no control) to 100 (complete control)
Procedure, shortened: as §2

[17] = test system: barnyard grass; test: Herbicidal activity test against upland field weeds (foliar treatment test); design: key to Foliar treatment herbicidal activity, barnyard grass: 0 (no control); 100 (complete control); conditions: scale 0-100; for Foliar treatment herbicidal activity, barnyard grass: 50 g ai/ha; for pest or weed control at 75 g/ha: Echinochloa crus-galli, 75 g ai/ha
Procedure, shortened: as §1

[18] = test system: velvetleaf; test: Herbicidal activity test against upland field weeds (soil treatment test); design: key to Soil treatment herbicidal activity, velvet leaf: 0 (no control); 100 (complete control); conditions: scale 0 (no control) to 100 (complete control); for pest or weed control at 50 g/ha: Abutilon theophrasti, 50 g ai/ha, read-out: Soil treatment herbicidal activity, velvet leaf; for Soil treatment herbicidal activity, velvet leaf: 75 g ai/ha
Procedure, shortened: as §2

[19] = test system: fall panicum; test: as above; design: key to Soil treatment herbicidal activity, Fall panicum: 0 (no control); 100 (complete control); conditions: scale 0 (no control) to 100 (complete control)
Procedure, shortened: as §2

[20] = test system: cocklebur; test: as above; design: key to Soil treatment herbicidal activity, Cocklebur: 0 (no control); 100 (complete control); conditions: scale 0 (no control) to 100 (complete control)
Protocol: Experimental Example 2: Herbicidal Activity Test Against Upland Field Weeds (Soil Treatment Test) Soil treatment was performed as follows: After filling a square plastic pot having a surface area of 350 cm^2 with sandy loam mixed with 1 g per pot (350 cm^2) of horticultural mixed fertilizer (N:P:K=11:10:11), seeds (10˜15 grains) or rootstocks (2 pieces) of 5 kinds of grassy weeds of sorghum, barnyard grass, quack grass, crabgrass, fall panicum, and 5 kinds of broadleaf weeds of black nightshade, indian jointvetch, velvetleaf, cocklebur, bindweed, which had been stored in a low temperature (6° C.), were sown. The day after sowing, test compound solutions were made by diluting with a preparation solution (including 50% acetone, 0.1% Tween-20) so that the final treatment amount of the test compounds was 50 or 75 g a.i./ha. The prepared test compound solution was used for treating soil surface by hand-spraying 14 mL per pot in a fume hood. After the treatment, it was managed under the same greenhouse conditions (average temperature 30±5° C., light/dark=14/10 hours), and after 14 days (after 21 days if necessary), the external symptoms and efficacy were investigated according to the scale of 0 (no control) to 100 (complete control). The results of Table 8 were obtained by evaluating weed control value to the untreated control by conducting visual assessment.

[21] = Abutilon theophrasti, scale 0-100, read-out: Foliar treatment herbicidal activity, velvet leaf
[22] = Panicum dichotomiflorum, 50 g ai/ha
[23] = Xanthium strumarium, 50 g ai/ha

SMILES: Cc1cc(C(=O)Nc2nnnn2C)c(OCc2nnnn2C)nc1C(F)(F)F [Compound No. 1-17, 5-methyl-N-(1-methyl-1H-tetrazol-5-yl)-2-((1-methyl-1H-tetrazol-5-yl)methoxy)-6-(trifluoromethyl)nicotinamide]
- Foliar treatment herbicidal activity, Sorghum [1]: 0
- Foliar treatment herbicidal activity, black nightshade ([2]; 50 g ai/ha): 100
- Soil treatment herbicidal activity, Indian jointvetch ([3]; 50 g ai/ha): 0
- Foliar treatment herbicidal activity, quack grass ([4]; 50 g ai/ha): 0
- pest or weed control at 50 g/ha [5]: 20%
- pest or weed control at 50 g/ha [6, 21]: 30%
- pest or weed control at 50 g/ha ([7]; Digitaria sanguinalis): 20%
- Soil treatment herbicidal activity, quack grass ([8]; 50 g ai/ha): 0
- pest or weed control at 50 g/ha [9, 22]: 20%
- pest or weed control at 50 g/ha [10, 23]: 40%
- pest or weed control at 50 g/ha [11]: 20%
- Foliar treatment herbicidal activity, Indian jointvetch [12]: 0
- Soil treatment herbicidal activity, barnyard grass ([13]; 50 g ai/ha): 0
- pest or weed control at 50 g/ha ([14]; Digitaria sanguinalis, 50 g ai/ha): 20%
- Soil treatment herbicidal activity, Sorghum [15]: 0
- Soil treatment herbicidal activity, black nightshade ([16]; 50 g ai/ha): 100
- Foliar treatment herbicidal activity, barnyard grass [17]: 0
- pest or weed control at 50 g/ha [18]: 30%
- pest or weed control at 50 g/ha [19, 22]: 20%
- pest or weed control at 50 g/ha [20, 23]: 40%

SMILES: C=Cc1cc(C(=O)Nc2nnnn2C)c(OCc2nnnn2C)nc1C(F)(F)F [Compound No. 1-18, N-(1-methyl-1H-tetrazol-5-yl)-2-((1-methyl-1H-tetrazol-5-yl)methoxy)-6-(trifluoromethyl)-5-vinylnicotinamide]
- Foliar treatment herbicidal activity, Sorghum [1]: 0
- pest or weed control at 50 g/ha ([2]; Solanum nigrum, 50 g ai/ha): 80%
- Soil treatment herbicidal activity, Indian jointvetch ([3]; 50 g ai/ha): 0
- Foliar treatment herbicidal activity, quack grass ([4]; 50 g ai/ha): 0
- pest or weed control at 50 g/ha [5]: 20%
- pest or weed control at 50 g/ha [6, 21]: 20%
- Soil treatment herbicidal activity, Crabgrass [7]: 0
- Soil treatment herbicidal activity, quack grass ([8]; 50 g ai/ha): 0
- Foliar treatment herbicidal activity, Fall panicum ([9]; 50 g ai/ha): 0
- Foliar treatment herbicidal activity, Cocklebur ([10]; 50 g ai/ha): 0
- pest or weed control at 50 g/ha [11]: 20%
- Foliar treatment herbicidal activity, Indian jointvetch [12]: 0
- Soil treatment herbicidal activity, barnyard grass ([13]; 50 g ai/ha): 0
- Foliar treatment herbicidal activity, Crabgrass ([14]; 50 g ai/ha): 0
- Soil treatment herbicidal activity, Sorghum [15]: 0
- pest or weed control at 50 g/ha ([16]; Solanum nigrum, 50 g ai/ha): 80%
- Foliar treatment herbicidal activity, barnyard grass [17]: 0
- pest or weed control at 50 g/ha [18]: 20%
- Soil treatment herbicidal activity, Fall panicum ([19]; 50 g ai/ha): 0
- Soil treatment herbicidal activity, Cocklebur ([20]; 50 g ai/ha): 0

SMILES: CCN(Cc1nnn(C)n1)c1nc(C(F)(F)F)ccc1C(=O)Nc1nnnn1C [Compound No. 2-27, 2-(ethyl((2-methyl-2H-tetrazol-5-yl)methyl)amino)-N-(1-methyl-1H-tetrazol-5-yl)-6-(trifluoromethyl)nicotinamide]
- plant injury at 75 g/ha [1]: 40%
- Foliar treatment herbicidal activity, black nightshade ([2]; 75 g ai/ha): 100
- Soil treatment herbicidal activity, Indian jointvetch ([3]; 75 g ai/ha): 100
- Foliar treatment herbicidal activity, quack grass ([4]; 75 g ai/ha): 0
- pest or weed control at 75 g/ha [5]: 98%
- Foliar treatment herbicidal activity, velvet leaf ([6]; 75 g ai/ha, scale 0-100): 100
- Soil treatment herbicidal activity, quack grass ([8]; 75 g ai/ha): 0
- pest or weed control at 75 g/ha ([9]; Panicum dichotomiflorum): 70%
- pest or weed control at 75 g/ha ([10]; Xanthium strumarium): 98%
- pest or weed control at 75 g/ha [11]: 40%
- pest or weed control at 75 g/ha [12]: 70%
- Soil treatment herbicidal activity, barnyard grass ([13]; 75 g ai/ha): 100
- pest or weed control at 75 g/ha ([14]; Digitaria sanguinalis): 20%
- plant injury at 75 g/ha [15]: 50%
- Soil treatment herbicidal activity, black nightshade ([16]; 75 g ai/ha): 100
- pest or weed control at 75 g/ha [17]: 80%
- Soil treatment herbicidal activity, velvet leaf [18]: 100
- Soil treatment herbicidal activity, Fall panicum ([19]; 75 g ai/ha): 100
- Soil treatment herbicidal activity, Cocklebur ([20]; 75 g ai/ha): 100

SMILES: CN(Cc1ncn(C)n1)c1nc(C(F)(F)F)ccc1C(=O)Nc1nnnn1C [Compound No. 2-35, 2-(methyl((1-methyl-1H-1,2,4-triazol-3-yl)methyl)amino)-N-(1-methyl-1H-tetrazol-5-yl)-6-(trifluoromethyl)nicotinamide]
- plant injury at 75 g/ha [1]: 70%
- Foliar treatment herbicidal activity, black nightshade ([2]; 75 g ai/ha): 100
- Soil treatment herbicidal activity, Indian jointvetch ([3]; 75 g ai/ha): 100
- Foliar treatment herbicidal activity, quack grass ([4]; 75 g ai/ha): 0
- pest or weed control at 75 g/ha [5]: 70%
- pest or weed control at 75 g/ha ([6]; Abutilon theophrasti, 75 g ai/ha, scale 0-100, read-out: Foliar treatment herbicidal activity, velvet leaf): 90%
- Soil treatment herbicidal activity, quack grass ([8]; 75 g ai/ha): 0
- pest or weed control at 75 g/ha ([9]; Panicum dichotomiflorum): 80%
- pest or weed control at 75 g/ha ([10]; Xanthium strumarium): 90%
- pest or weed control at 75 g/ha [11]: 70%
- pest or weed control at 75 g/ha [12]: 80%
- Soil treatment herbicidal activity, barnyard grass ([13]; 75 g ai/ha): 100
- pest or weed control at 75 g/ha ([14]; Digitaria sanguinalis): 70%
- plant injury at 75 g/ha [15]: 90%
- Soil treatment herbicidal activity, black nightshade ([16]; 75 g ai/ha): 100
- pest or weed control at 75 g/ha [17]: 80%
- Soil treatment herbicidal activity, velvet leaf [18]: 100
- Soil treatment herbicidal activity, Fall panicum ([19]; 75 g ai/ha): 100
- pest or weed control at 75 g/ha ([20]; Xanthium strumarium, 75 g ai/ha): 95%
